Assay results reported in US10898481B2 (priority 2018, dated 2021).

Assays:
[1] = biological target: hADORA1/CHO (hA1 expressing) cells (Homo sapiens (Human), UniProt P30542); experiment: cell-based; conditions: FLIPR inhibition, 10 μM adenosine, read-out: cAMP & FLIPR IC50 (nM) hA1
Protocol: hADORA1/CHO (hA1 expressing) cells (Genscript) were plated at 1×10^4 cells/well into 384-well polystyrene plates one day before starting the experiment. On the day of experiment, the supernatant was discard and replaced with 40 μL of dye (FLIPR calcium 5 Assay Kit) per well and the plates were incubated for 60 mins at 37° C. plus 5% CO2. Then testing compounds were added at different concentrations for FLIPR™ inhibition assay. After a 400s incubation with compound, 10 μM adenosine was added into the cells, and the signal was captured by FLIPR.

hA2b/CHO = hA2b/CHO (Homo sapiens (Human), UniProt P29275); experiment: cAMP inhibition assay in hA2b/CHO cells, 10 μM adenosine; assay type: cell-based; conditions: read-out: cAMP & FLIPR IC50 (nM) hA2b;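 also: cells exposed to compound 30 min at 37 °C, then stimulated with adenosine a further 30 min, cAMP read after 60 min at room temperature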
Chain of hA2b/CHO (P29275 whole entry): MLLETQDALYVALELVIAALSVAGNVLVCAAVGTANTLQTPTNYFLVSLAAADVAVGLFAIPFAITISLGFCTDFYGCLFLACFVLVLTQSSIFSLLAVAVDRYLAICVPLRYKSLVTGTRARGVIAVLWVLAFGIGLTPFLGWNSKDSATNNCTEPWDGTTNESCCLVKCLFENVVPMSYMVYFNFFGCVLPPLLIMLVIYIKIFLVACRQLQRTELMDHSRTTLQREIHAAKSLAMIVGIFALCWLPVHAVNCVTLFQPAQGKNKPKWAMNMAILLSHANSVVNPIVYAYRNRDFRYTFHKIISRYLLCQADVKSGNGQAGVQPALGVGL

mA2a/CHO = mA2a/CHO (Mus musculus (Mouse), UniProt Q60613); experiment: cAMP inhibition assay in mA2a/CHO cells, 10 μM adenosine; assay type: cell-based; conditions: read-out: cAMP & FLIPR IC50 (nM) mA2a;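 also: compounds preincubated 30 min at 37 °C before the adenosine challenge, then 30 min further stimulation, readout after 60 min detection reagent incubation at room temperature in 384-well plates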
Chain of mA2a/CHO (Q60613 whole entry): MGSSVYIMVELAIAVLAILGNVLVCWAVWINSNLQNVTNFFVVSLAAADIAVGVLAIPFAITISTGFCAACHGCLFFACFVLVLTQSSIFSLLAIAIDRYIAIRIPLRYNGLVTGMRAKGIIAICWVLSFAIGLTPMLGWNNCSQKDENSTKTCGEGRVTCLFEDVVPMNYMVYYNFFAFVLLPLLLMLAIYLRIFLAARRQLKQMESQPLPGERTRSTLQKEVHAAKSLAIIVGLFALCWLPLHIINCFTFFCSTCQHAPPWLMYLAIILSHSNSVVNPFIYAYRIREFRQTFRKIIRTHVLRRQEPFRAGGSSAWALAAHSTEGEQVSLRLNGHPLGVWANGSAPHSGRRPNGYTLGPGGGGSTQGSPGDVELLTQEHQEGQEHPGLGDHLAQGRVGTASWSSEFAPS

hA3/CHO = hA3/CHO (Homo sapiens (Human), UniProt P0DMS8); experiment: cell-based
Chain of hA3/CHO (P0DMS8 whole entry): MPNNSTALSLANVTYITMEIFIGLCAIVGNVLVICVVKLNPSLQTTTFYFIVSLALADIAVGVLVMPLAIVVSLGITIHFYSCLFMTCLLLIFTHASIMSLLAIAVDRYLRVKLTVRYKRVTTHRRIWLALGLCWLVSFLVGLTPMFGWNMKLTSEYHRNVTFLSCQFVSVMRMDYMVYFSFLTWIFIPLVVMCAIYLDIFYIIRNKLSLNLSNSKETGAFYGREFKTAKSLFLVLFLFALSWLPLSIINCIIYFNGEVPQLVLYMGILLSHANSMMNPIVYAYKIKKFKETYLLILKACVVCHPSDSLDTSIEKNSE
Protocol: hA2a/CHO, hA2b/CHO, hA3/CHO and mA2a/CHO (Genscript) were plated at 5×10^3 cells/well into 384-well polystyrene plates at the day of experiment. Compounds were pre-incubated with cells for 30 min at 37° C., 5% CO2. Then 10 μM adenosine was added to the cells and incubated for 30 min at 37° C., 5% CO2. Detection reagent (CISBIO) was added and the plates were incubated for 60 min at room temperature. The signal was captured by Envision.

hA2a/CHO = hA2a/CHO (Homo sapiens (Human), UniProt P29274); experiment: cAMP inhibition assay in hA2a/CHO cells, 10 μM adenosine; assay type: cell-based; conditions: read-out: cAMP & FLIPR IC50 (nM) hA2a;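 also: compounds added to cells 30 min ahead of adenosine, then a further 30 min at 37 °C with adenosine before cAMP detection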
Chain of hA2a/CHO (P29274 whole entry): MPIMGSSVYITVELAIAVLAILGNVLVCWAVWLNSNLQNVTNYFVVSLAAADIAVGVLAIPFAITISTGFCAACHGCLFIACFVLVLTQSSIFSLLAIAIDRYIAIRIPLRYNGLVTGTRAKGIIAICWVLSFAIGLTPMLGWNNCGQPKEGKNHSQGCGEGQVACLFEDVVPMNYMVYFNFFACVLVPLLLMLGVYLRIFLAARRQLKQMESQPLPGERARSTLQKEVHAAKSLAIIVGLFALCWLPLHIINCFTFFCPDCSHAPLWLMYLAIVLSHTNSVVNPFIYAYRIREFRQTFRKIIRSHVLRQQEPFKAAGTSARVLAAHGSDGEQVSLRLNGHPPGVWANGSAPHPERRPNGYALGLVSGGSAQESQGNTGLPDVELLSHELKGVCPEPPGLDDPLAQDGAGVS

hA2a = hA2a (Homo sapiens (Human), UniProt P29274); experiment: Radioligand binding to hA2a membrane with [3H]-CGS21680; conditions: read-out: Binding Affinity (IC50 nM) hA2a
Chain of hA2a (P29274 whole entry): as above
From the text: The empty boxes in the tables below indicate data not collected yet.

Chain of hADORA1/CHO (hA1 expressing) cells (P30542 whole entry): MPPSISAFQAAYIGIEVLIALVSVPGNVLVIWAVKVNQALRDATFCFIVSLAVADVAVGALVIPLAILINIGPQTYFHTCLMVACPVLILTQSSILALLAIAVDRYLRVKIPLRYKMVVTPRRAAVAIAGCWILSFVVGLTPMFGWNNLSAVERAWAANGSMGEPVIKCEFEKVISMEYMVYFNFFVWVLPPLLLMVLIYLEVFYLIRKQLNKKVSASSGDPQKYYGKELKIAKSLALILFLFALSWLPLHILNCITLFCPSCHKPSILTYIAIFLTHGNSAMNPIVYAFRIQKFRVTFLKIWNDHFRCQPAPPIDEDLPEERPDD

Compound	IC50 [1]	IC50 (hA2b/CHO)	IC50 (mA2a/CHO)	IC50 (hA3/CHO)	IC50 (hA2a/CHO)	IC50 (hA2a)
Cc1cc(-c2nc(C(=O)NCc3cccc(N(C)C)n3)c(N)nc2-c2ccc(F)cc2)cc(C)n1 [Example 9, 3-amino-N-[[6-(dimethylamino)pyridin-2-yl]methyl]-6-(2,6-dimethylpyridin-4-yl)-5-(4-fluorophenyl)pyrazine-2-carboxamide]	1000 nM	≥ 10000 nM	25 nM	≥ 10000 nM	5.4 nM	–
Cc1cc(-c2nc(C(=O)NCc3c(F)cccc3F)c(N)nc2-c2ncco2)ccn1 [Example 10, 3-amino-N-(2,6-difluorobenzyl)-6-(2-methylpyridin-4-yl)-5-(oxazol-2-yl) pyrazine-2-carboxamide]	58 nM	17 nM	41 nM	≥ 10000 nM	17 nM	–
Cn1cc(-c2nc(C(=O)NCc3ncccc3C(F)(F)F)c(N)nc2-c2ncco2)ccc1=O [Example 11, 3-amino-6-(1-methyl-6-oxo-1,6-dihydropyridin-3-yl)-5-(oxazol-2-yl)-N-((3-(trifluoromethyl)pyridin-2-yl)methyl)pyrazine-2-carboxamide]	4490 nM	1010 nM	87 nM	≥ 10000 nM	89 nM	–
Cc1cc(-c2nc(C(=O)NCc3cccc(N(C)C)n3)c(N)nc2-c2ccc(F)cc2)ccn1 [Example 12, 3-amino-N-((6-(dimethylamino)pyridin-2-yl)methyl)-5-(4-fluorophenyl)-6-(2-methylpyridin-4-yl)pyrazine-2-carboxamide]	414 nM	9030 nM	678 nM	6940 nM	36 nM	–
CN(C)c1cccc(CNC(=O)c2nc(-c3ccc(=O)n(C)c3)c(-c3ccc(F)cc3)nc2N)n1 [Example 13, 3-amino-N-[[6-(dimethylamino)pyridin-2-yl]methyl]-5-(4-fluorophenyl)-6-(1-methyl-6-oxo-1,6-dihydropyridin-3-yl)pyrazine-2-carboxamide]	72 nM	4640 nM	51 nM	≥ 10000 nM	6.1 nM	–
Cn1cc(-c2nc(C(=O)NCc3ncccc3F)c(N)nc2-c2ncco2)ccc1=O [Example 14, 3-amino-N-((3-fluoropyridin-2-yl)methyl)-6-(1-methyl-6-oxo-1,6-dihydropyridin-3-yl)-5-(oxazol-2-yl)pyrazine-2-carboxamide]	10000 nM	768 nM	213 nM	≥ 10000 nM	98 nM	3.1 nM
CC(NC(=O)c1nc(-c2ccc(=O)n(C)c2)c(-c2ncco2)nc1N)c1c(F)cccc1F (stereo not shown) [Example 20, 3-amino-N-(1-(2,6-difluorophenyl)ethyl)-6-(1-methyl-6-oxo-1,6-dihydropyridin-3-yl)-5-(oxazol-2-yl) pyrazine-2-carboxamide]	6610 nM	3600 nM	170 nM	≥ 10000 nM	41 nM	–
Cc1scnc1CNC(=O)c1nc(-c2ccc(=O)n(C)c2)c(-c2ncco2)nc1N [Example 22, 3-amino-6-(1-methyl-6-oxo-1,6-dihydropyridin-3-yl)-N-((5-methylthiazol-4-yl)methyl)-5-(oxazol-2-yl)pyrazine-2-carboxamide]	3380 nM	2550 nM	132 nM	≥ 10000 nM	60 nM	3.5 nM
Cn1cc(-c2nc(C(=O)NCc3cccc(N)n3)c(N)nc2-c2ncco2)ccc1=O [Example 24, 3-amino-N-[(6-aminopyridin-2-yl)methyl]-6-(1-methyl-6-oxo-1,6-dihydropyridin-3-yl)-5-(1,3-oxazol-2-yl)pyrazine-2-carboxamide]	9360 nM	1460 nM	641 nM	≥ 10000 nM	199 nM	11 nM
CN(C)c1ccnc(CNC(=O)c2nc(-c3ccc(=O)n(C)c3)c(-c3ncco3)nc2N)n1 [Example 25, 3-amino-N-((4-(dimethylamino)pyrimidin-2-yl)methyl)-6-(1-methyl-6-oxo-1,6-dihydropyridin-3-yl)-5-(oxazol-2-yl)pyrazine-2-carboxamide]	3300 nM	≥ 10000 nM	242 nM	≥ 10000 nM	125 nM	–
Cn1cc(-c2nc(C(=O)NCc3cccc(N4CCC4)n3)c(N)nc2-c2ncco2)ccc1=O [Example 26, 3-amino-N-[[6-(azetidin-1-yl)pyridin-2-yl]methyl]-6-(1-methyl-6-oxo-1,6-dihydropyridin-3-yl)-5-(1,3-oxazol-2-yl)pyrazine-2-carboxamide]	725 nM	≥ 10000 nM	309 nM	≥ 10000 nM	108 nM	–
CN(C)c1ccc(F)c(CNC(=O)c2nc(-c3ccc(=O)n(C)c3)c(-c3ncco3)nc2N)c1 [Example 27, 3-amino-N-(5-(dimethylamino)-2-fluorobenzyl)-6-(1-methyl-6-oxo-1,6-dihydropyridin-3-yl)-5-(oxazol-2-yl)pyrazine-2-carboxamide]	1770 nM	≥ 10000 nM	177 nM	≥ 10000 nM	60 nM	–
Cn1cc(-c2nc(C(=O)NCc3cccc(N4CCCC4)n3)c(N)nc2-c2ncco2)ccc1=O [Example 28, 3-amino-6-(1-methyl-6-oxo-1,6-dihydropyridin-3-yl)-5-(1,3-oxazol-2-yl)-N-[[6-(pyrrolidin-1-yl)pyridin-2-yl]methyl]pyrazine-2-carboxamide]	4900 nM	≥ 10000 nM	160 nM	≥ 10000 nM	129 nM	–
Cn1cc(-c2nc(C(=O)NCc3ncccc3OC(F)(F)F)c(N)nc2-c2ncco2)ccc1=O [Example 30, 3-amino-6-(1-methyl-6-oxo-1,6-dihydropyridin-3-yl)-5-(1,3-oxazol-2-yl)-N-[[3-(trifluoromethoxy)pyridin-2-yl]methyl]pyrazine-2-carboxamide]	214 nM	603 nM	47 nM	≥ 10000 nM	45 nM	–
Nc1nc(-c2ncco2)c(-c2ccc(=O)n(C(F)F)c2)nc1C(=O)NCc1ncccc1F [Example 31, 3-amino-6-[1-(difluoromethyl)-6-oxo-1,6-dihydropyridin-3-yl]-N-[(3-fluoropyridin-2-yl)methyl]-5-(1,3-oxazol-2-yl)pyrazine-2-carboxamide]	35 nM	164 nM	75 nM	≥ 10000 nM	34 nM	–
Nc1nc(-c2ncco2)c(-c2ccc3nccn3c2)nc1C(=O)NCc1c(F)cccc1F [Example 32, 3-amino-N-[(2,6-difluorophenyl)methyl]-6-[imidazo[1,2-a]pyridin-6-yl]-5-(1,3-oxazol-2-yl)pyrazine-2-carboxamide]	494 nM	3 nM	2 nM	≥ 10000 nM	0.2 nM	–
CN(C)c1cccc(CNC(=O)c2nc(-c3ccc(=O)n(C)c3)c(-c3ncco3)nc2N)c1F [Example 33, 3-amino-N-(3-(dimethylamino)-2-fluorobenzyl)-6-(1-methyl-6-oxo-1,6-dihydropyridin-3-yl)-5-(oxazol-2-yl)pyrazine-2-carboxamide]	3030 nM	≥ 10000 nM	123 nM	≥ 10000 nM	56 nM	–
